From the supplement of paper PMC11208160

Experiment: recombinant barcode read abundance after kanamycin selection (control-corrected) (log10(CPM+1)); higher = more efficient recombination; sequences stand for … in AGTGCAGAGAAAATCGGCCAGTTTTCTCTGCCTGCAGTCCGCATGCCGT…AGATTTATGCAGCGGACTGCCTTTCTCCCAAAGTGATAAACCGGACAGTATCATGGACCGGTTTTCCCGGTAATCCGTATTTGCAAGGTTGGTTTCACT; site = the 11-nt target
Summary of the method: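 Recombination efficiency in this pooled E. coli screen uses counts per million of barcodes at recombinant junctions, averaged and corrected against the control. The reported form is log10(CPM+1). Two replicates were plated on chloramphenicol/ampicillin LB agar as control and two on chloramphenicol/ampicillin/kanamycin with 0.1 mM IPTG.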
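Also: IS621 recombinase and bridge RNA in Escherichia coli cells.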

Going from “ACTTGAGCTTGGGTTCTAACCTGTTGCAG (site CACGCTCCTAC)” to “TAGCTCCCTTGGGTTCTAACCTGTTGCCT (site TAGCTCCCTAG)”, the “recombinant barcode read abundance (log10)” value rises from 0.167 to 1.21.

“AGTCGGTCTTGGGTTCTAACCTGTTGCAT (site GGTCCGTCTAT)” and “TATAATTCTTGGGTTCTAACCTGTTGCTT (site TATAATTCTAA)” are within 0.2 log units of each other in “recombinant barcode read abundance (log10)” value: 0.0825 for the first, 0.164 for the second.

First: ATAAAAGCTTGGGTTCTAACCTGTTGCCT (site ATAACAGCTAG)
Second: CTAGACCCTTGGGTTCTAACCTGTTGCCT (site CTAGACCCTAG)
The “recombinant barcode read abundance (log10)” value of the first is lower: 0.0538 for the first, 1.95 for the second.

“ACCGCTCCTTGGGTTCTAACCTGTTGCCT (site ATCGCTCCTAG)” and “TGGCCTTCTTGGGTTCTAACCTGTTGCCT (site TAGCCTTCTAG)” are within 0.2 log units of each other in “recombinant barcode read abundance (log10)” value: 0.0271 for the first, 0.0963 for the second.

Going from “AAAGTGTCTTGGGTTCTAACCTGTTGCCT (site AATGTGTCTAG)” to “TGACGCTCTTGGGTTCTAACCTGTTGCCT (site TGGCGCTCTAG)”, the “recombinant barcode read abundance (log10)” value falls from 0.65 to 0.323.

Going from “CTAGCCTCTTGGGTTCTAACCTGTTGCAT (site CTAGCCTCTAT)” to “CTTACCGCTTGGGTTCTAACCTGTTGCCT (site CTTACAGCTAG)”, the “recombinant barcode read abundance (log10)” value falls from 2.38 to 0.137.

Compared with “CAAACTACTTGGGTTCTAACCTGTTGCTA (site CAAACTACTGT)”, “AGGCGCCCTTGGGTTCTAACCTGTTGCAC (site AGGCGCCCTGT)” is higher in “recombinant barcode read abundance (log10)” value: 0.011 for the first, 1.33 for the second.

First: TATACAACTTGGGTTCTAACCTGTTGCCT (site TATAAAACTAG)
Second: CCTGACACTTGGGTTCTAACCTGTTGCGG (site CCTGACACTCC)
The “recombinant barcode read abundance (log10)” value of the first is lower: 0.089 for the first, 1.66 for the second.

Compared with “AAAAGTCCTTGGGTTCTAACCTGTTGCCT (site AAAAGTCCTAG)”, “GTTTGTCCTTGGGTTCTAACCTGTTGCTT (site GTTTGACCTAA)” is lower in “recombinant barcode read abundance (log10)” value: 1.11 for the first, 0.178 for the second.

“CGGCGTACTTGGGTTCTAACCTGTTGCCT (site CGTCGTACTAG)” and “AATTGGACTTGGGTTCTAACCTGTTGCTT (site CATTGGACTAA)” are within 0.2 log units of each other in “recombinant barcode read abundance (log10)” value: 0.069 for the first, 0.0957 for the second.

Compared with “GTTTGCCCTTGGGTTCTAACCTGTTGCTT (site GTTTGCCCTAA)”, “TCGCGTCCTTGGGTTCTAACCTGTTGCCG (site TCGCGTCCTCG)” is higher in “recombinant barcode read abundance (log10)” value: 0.0681 for the first, 1.41 for the second.

First: ACCCAGCCTTGGGTTCTAACCTGTTGCAG (site ACCCAGCCTCT)
Second: GAGAATACTTGGGTTCTAACCTGTTGCGT (site AAGAATACTAG)
The “recombinant barcode read abundance (log10)” value of the first is higher: 2.27 for the first, 0.0615 for the second.

Going from “TCGCACCCTTGGGTTCTAACCTGTTGCGA (site TCGGACCCTTC)” to “GCTGCTCCTTGGGTTCTAACCTGTTGCGT (site GCGGGTCCTAC)”, the “recombinant barcode read abundance (log10)” value falls from 0.369 to 0.0749.

“TCCGCTCCTTGGGTTCTAACCTGTTGCCT (site TCCGCTACTAG)” and “GTGTTGCCTTGGGTTCTAACCTGTTGCCT (site GAGTTGCCTAG)” are within 0.2 log units of each other in “recombinant barcode read abundance (log10)” value: 0.177 for the first, 0.267 for the second.

Going from “CTTAGCTCTTGGGTTCTAACCTGTTGCCT (site CTTAGCTCTAG)” to “GCGGAAGCTTGGGTTCTAACCTGTTGCCT (site GGGGAAGCTAG)”, the “recombinant barcode read abundance (log10)” value falls from 1.15 to 0.469.

First: ACGCACTCTTGGGTTCTAACCTGTTGCCG (site ACGCACTCTCG)
Second: TGCGACCCTTGGGTTCTAACCTGTTGCTT (site TGGGACCCTAT)
The “recombinant barcode read abundance (log10)” value of the first is higher: 0.646 for the first, 0.312 for the second.

First: GGTGCTCCTTGGGTTCTAACCTGTTGCAA (site GGTGCTCCTTT)
Second: TGGTTACCTTGGGTTCTAACCTGTTGCCT (site TGTTTAACTAG)
The “recombinant barcode read abundance (log10)” value of the first is higher: 0.3 for the first, 0.0377 for the second.

Compared with “TCCAAAGCTTGGGTTCTAACCTGTTGCTA (site TCCGAAGCTTA)”, “CTGGGTTCTTGGGTTCTAACCTGTTGCCT (site CAGGGTTCTAG)” is lower in “recombinant barcode read abundance (log10)” value: 0.294 for the first, 0.0887 for the second.

Compared with “CTAAGGTCTTGGGTTCTAACCTGTTGCCT (site CTAAGGTCTAA)”, “TATTGCCCTTGGGTTCTAACCTGTTGCCT (site TAATGCCCTAG)” is lower in “recombinant barcode read abundance (log10)” value: 0.745 for the first, 0.203 for the second.

“GTCAATCCTTGGGTTCTAACCTGTTGCGG (site CGACGAACTAG)” and “CAAAGATCTTGGGTTCTAACCTGTTGCTT (site CATAGATCTAA)” are within 0.2 log units of each other in “recombinant barcode read abundance (log10)” value: 0.138 for the first, 0.108 for the second.

Compared with “TACTCCGCTTGGGTTCTAACCTGTTGCCT (site GACTCCGCTAG)”, “GGGGACCCTTGGGTTCTAACCTGTTGCGT (site GGGGACCCTAC)” is higher in “recombinant barcode read abundance (log10)” value: 0.031 for the first, 3.4 for the second.

“TGGAGCCCTTGGGTTCTAACCTGTTGCTT (site TGGAGCCCTAA)” and “ATCATAGCTTGGGTTCTAACCTGTTGCGC (site ATCATAGCTGC)” are within 0.2 log units of each other in “recombinant barcode read abundance (log10)” value: 0.463 for the first, 0.504 for the second.

“GACATATCTTGGGTTCTAACCTGTTGCCA (site GACATATCTCA)” and “CTCACACCTTGGGTTCTAACCTGTTGCTT (site CTCAAACCTAA)” are within 0.2 log units of each other in “recombinant barcode read abundance (log10)” value: 0.337 for the first, 0.257 for the second.

“TACAGCTCTTGGGTTCTAACCTGTTGCTT (site TACCGCTCTAA)” and “CTCTTGGCTTGGGTTCTAACCTGTTGCCT (site CTCTCGGCTAG)” are within 0.2 log units of each other in “recombinant barcode read abundance (log10)” value: 0.104 for the first, 0.139 for the second.

First: AGTCATACTTGGGTTCTAACCTGTTGCCT (site AGTCATACTAG)
Second: GTGAACCCTTGGGTTCTAACCTGTTGCAG (site GTGAACCCTCT)
The “recombinant barcode read abundance (log10)” value of the first is lower: 0.232 for the first, 2.11 for the second.

“AAGCACTCTTGGGTTCTAACCTGTTGCCT (site AAGCAGTCTAG)” and “TTAAATCCTTGGGTTCTAACCTGTTGCCT (site CTAAATCCTAG)” are within 0.2 log units of each other in “recombinant barcode read abundance (log10)” value: 0.107 for the first, 0.183 for the second.

First: TGTTCTACTTGGGTTCTAACCTGTTGCTT (site TGATCTACTAA)
Second: CAAAGGTCTTGGGTTCTAACCTGTTGCTA (site CAAAGGTCTTA)
The “recombinant barcode read abundance (log10)” value of the first is lower: 0.0326 for the first, 1.39 for the second.

“TGCCACCCTTGGGTTCTAACCTGTTGCGT (site TACTACCCTAC)” and “CTCAAAGCTTGGGTTCTAACCTGTTGCCG (site CTCAAAGCTCG)” are within 0.2 log units of each other in “recombinant barcode read abundance (log10)” value: 0.0993 for the first, 0.258 for the second.

“CGAGCTCCTTGGGTTCTAACCTGTTGCTT (site CGAGCTCCTAG)” and “GGTGACTCTTGGGTTCTAACCTGTTGCCT (site GGTGACTCTAG)” are within 0.2 log units of each other in “recombinant barcode read abundance (log10)” value: 1.1 for the first, 1.15 for the second.

Compared with “TCAGGGACTTGGGTTCTAACCTGTTGCAG (site TCAGGGACTCT)”, “GTAACTACTTGGGTTCTAACCTGTTGCAC (site CTAATTACTGT)” is lower in “recombinant barcode read abundance (log10)” value: 2.45 for the first, 0.0302 for the second.

First: CTCGATACTTGGGTTCTAACCTGTTGCTT (site CTCGATACTAA)
Second: CCTAGATCTTGGGTTCTAACCTGTTGCCT (site CCTAGAGCTAG)
The “recombinant barcode read abundance (log10)” value of the first is higher: 0.684 for the first, 0.0181 for the second.

First: CTTCAGCCTTGGGTTCTAACCTGTTGCCT (site CTTCAACCTAG)
Second: CTCTACACTTGGGTTCTAACCTGTTGCCA (site CTCTACACTTG)
The “recombinant barcode read abundance (log10)” value of the first is lower: 0.612 for the first, 0.879 for the second.

First: TTACCAACTTGGGTTCTAACCTGTTGCCT (site TTACCTACTAG)
Second: AGGTGTGCTTGGGTTCTAACCTGTTGCCT (site AGGTTTGCTAG)
The “recombinant barcode read abundance (log10)” value of the first is lower: 0.12 for the first, 0.502 for the second.

Going from “TCAGAATCTTGGGTTCTAACCTGTTGCCT (site TCAGTATCTAG)” to “ACCCGTACTTGGGTTCTAACCTGTTGCCT (site ACCTGTACTAG)”, the “recombinant barcode read abundance (log10)” value rises from 0.0618 to 0.485.

Going from “TGGCCCTCTTGGGTTCTAACCTGTTGCTG (site TGGCCCTCTAA)” to “GTCTAAGCTTGGGTTCTAACCTGTTGCTT (site GTCTATGCTAC)”, the “recombinant barcode read abundance (log10)” value falls from 0.784 to 0.295.

“ACAAATCCTTGGGTTCTAACCTGTTGCCT (site ACAAAGCCTAG)” and “TGGTCCGCTTGGGTTCTAACCTGTTGCCT (site TGGTGCGCTAG)” are within 0.2 log units of each other in “recombinant barcode read abundance (log10)” value: 0.0186 for the first, 0.0483 for the second.

“GGAAGTTCTTGGGTTCTAACCTGTTGCCT (site GAAAGTTCTAG)” and “AATGCTACTTGGGTTCTAACCTGTTGCAT (site TATGCTACTAT)” are within 0.2 log units of each other in “recombinant barcode read abundance (log10)” value: 0.0496 for the first, 0.238 for the second.

“CACACGTCTTGGGTTCTAACCTGTTGCCT (site CACACGACTAG)” and “TCCAATCCTTGGGTTCTAACCTGTTGCAG (site TCCAACCCTCT)” are within 0.2 log units of each other in “recombinant barcode read abundance (log10)” value: 0.103 for the first, 0.0551 for the second.

“AAGCGTTCTTGGGTTCTAACCTGTTGCCT (site AAGCGTGCTAG)” and “ATCAAGCCTTGGGTTCTAACCTGTTGCAG (site TATCCCTCTAG)” are within 0.2 log units of each other in “recombinant barcode read abundance (log10)” value: 0.0909 for the first, 0.0814 for the second.

“TACGCTCCTTGGGTTCTAACCTGTTGCAT (site TACGCTCCTAG)” and “CCGCGAGCTTGGGTTCTAACCTGTTGCCG (site GATGTGCCTAC)” are within 0.2 log units of each other in “recombinant barcode read abundance (log10)” value: 0.284 for the first, 0.137 for the second.

“GCCTGTTCTTGGGTTCTAACCTGTTGCCT (site GTCTGTTCTAG)” and “TGGTCCGCTTGGGTTCTAACCTGTTGCCT (site TGGTTCGCTAG)” are within 0.2 log units of each other in “recombinant barcode read abundance (log10)” value: 0.137 for the first, 0.243 for the second.

“AGAAGTCCTTGGGTTCTAACCTGTTGCAG (site AGAAGTCCTCC)” and “CTTTGTACTTGGGTTCTAACCTGTTGCCT (site CCTTGTACTAG)” are within 0.2 log units of each other in “recombinant barcode read abundance (log10)” value: 0.246 for the first, 0.265 for the second.

“TCGCCTTCTTGGGTTCTAACCTGTTGCCT (site TTGCCTTCTAG)” and “GTCACTACTTGGGTTCTAACCTGTTGCGT (site GTAACTACTCC)” are within 0.2 log units of each other in “recombinant barcode read abundance (log10)” value: 0.0934 for the first, 0.182 for the second.
